Laboratory results from patent US4015002A, “1-Aryl-2-oxo-2,4,5,6,7,7a-hexahydro-indoles, salts, pharmaceutical compositions and methods of use” (Laboratoire Roger Bellon, priority 1974, dated 1977).
Values after ≈ are worked out from the molar mass of the structure shown. Read-outs that look alike come from different tables or passages of the source.

Legend:
anaethestized dog = experiment: Action on femoral delivery, aortal pressure and cardiac rhythm in the anaesthetized dog; format: in vivo; details: for Aortal pressure, maximum variation in 30 minutes / Cardiac Rhythm, maximum variation in 30 minutes / Femoral Delivery, maximum variation in 30 minutes: i.v. perfusion over 5 min, dose 1/10 of mouse LD50, percent based on initial values; for Aortal pressure (in words) / Cardiac frequency (in words) / Vasodilator action (in words): anaesthetized dog, i.v.; for Vasodilator action (in words): 1/10 of mouse LD50
Experimental: This was investigated in an anaethestized dog, the compounds under test being administered by intraveneous perfusion (over 5 minutes). The various compounds under test were compared by administering all of them at a dose per kilogram corresponding to 1/10 of the mouse LD50 (I.V.).
Simultaneously were measured: variations of femoral delivery, aortal pressure, and cardiac rhythm. Table II indicates the maximum variations of these different parameters observed over the 30 minutes which followed administration of various compounds. These variations are expressed in percent based on the initial values.

[1] = tested on: isolated heart of the rabbit; experiment: Cardiac action on the isolated heart of a rabbit (Langendorf preparation); details: for EC20: Oryctolagus cuniculus, direction arrow is a drawing
Experimental: (§1) This was examined according to known methods in the isolated auricle (Trevan preparation) and in the isolated heart of a rabbit (Langendorf preparation).
In the Langendorf preparation, the action of the compounds was determined from three parameters; the amplitude of contractions, coronary delivery, and rhythm. […] The results are indicated in Table 1; an arrow ↓ indicates a diminution, and an arrow ↑ an augmentation.

[2] = Toxicity, intravenous in the mouse; details: in vivo, i.v.
Experimental: The toxicities of the various compound were determined intravenously in the mouse.

isolated auricle = experiment: Cardiac action on the isolated auricle (Trevan preparation): amplitude of contractions; details: arrows for diminution/increase are drawings, 0 = inactive, read-out: Action on the isolated auricle: minimum concentration producing a variation of 20% in amplitude of contractions
Experimental: as §1
Cardiac action of the compounds in question was evaluated according to the amplitude of contractions of the isolated auricle.

[3] = read-out: Amplitude of contractions: concentration producing a variation of 20%
[4] = read-out: Coronary delivery: concentration producing a variation of 20%
[5] = read-out: Rhythm: concentration producing a variation of 20%

Structure (SMILES) | Aortal pressure, maximum variation in 30 minutes (anaethestized dog) [%] | Cardiac Rhythm, maximum variation in 30 minutes (anaethestized dog) [%] | EC20 [1, 3] [µg/mL] | LD50 [2] [mg/kg] | EC20 (isolated auricle) [µg/mL] | Femoral Delivery, maximum variation in 30 minutes (anaethestized dog) [%] | EC20 [1, 4] [µg/mL] | EC20 [1, 5] [µg/mL] | Coronary delivery (in words) [1] | Aortal pressure (in words) (anaethestized dog) | Cardiac frequency (in words) (anaethestized dog) | Vasodilator action (in words) (anaethestized dog)
CCN(CC)CCOc1ccc(N2C(=O)C=C3CCCCC32)cc1 (centres unmarked) [Example 1, 1-[4-(2-diethylaminoethoxy)-phenyl] -2-oxo-2,4,5,6,7,7a-hexahydro-indole] | 0 | 0 | 5 (≈ 15.2 µM) | 150 | 20 (≈ 60.9 µM) |  |  |  |  |  |  | 
CN(C)CCOc1ccc(N2C(=O)C=C3CCCCC32)cc1 (centres unmarked) [Example 5, 1-[4-(2-Dimethylaminoethoxy)-phenyl]-2-oxo-2,4,5,6,7,7a-hexahydro-indole] | 0 |  | 1 (≈ 3.33 µM) | 90 | 50 (≈ 166 µM) | 0 | 20 (≈ 66.6 µM) | 10 (≈ 33.3 µM) |  |  |  | 
O=C1C=C2CCCCC2N1c1ccc(OCCN2CCCCC2)cc1 (centres unmarked) [Example 6, 1-[4-(2-Piperidinoethoxy)-phenyl]-2-oxo-2,4,5,6,7,7a-hexahydro-indole] | 0 |  | 1 (≈ 2.94 µM) | 40 | 10 (≈ 29.4 µM) | 0 | 20 (≈ 58.7 µM) | 20 (≈ 58.7 µM) |  |  |  | 
CC(C)N(CCOc1ccc(N2C(=O)C=C3CCCCC32)cc1)C(C)C (centres unmarked) [Example 7, 1-[4-(2Diisopropylaminoethoxy)-phenyl]-2-oxo-2,4,5,6,7,7a-hexahydro-indole] | 0 | 0 | 1 (≈ 2.8 µM) | 85 | 10 (≈ 28 µM) |  |  | 20 (≈ 56.1 µM) |  |  |  | 
CN(C)CCCOc1ccc(N2C(=O)C=C3CCCCC32)cc1 (centres unmarked) [Example 8, 1-[4-(3-Dimethylaminopropoxy)-phenyl]-2-oxo-2,4,5,6,7,7 a-hexahydro-indole] | 0 |  | 1 (≈ 3.18 µM) | 85 | 10 (≈ 31.8 µM) |  |  | 5 (≈ 15.9 µM) |  |  |  | 
O=C1C=C2CCCCC2N1c1cccc(OCCN2CCOCC2)c1 (centres unmarked) [Example 9, 1-[3-(2-Morpholinoethoxy)-phenyl]-2-oxo-2,4,5,6,7,7a-hexahydro-indole] | 0 |  | 1 (≈ 2.92 µM) | 170 | 50 (≈ 146 µM) |  | 20 (≈ 58.4 µM) |  | augmented |  |  | 
O=C1C=C2CCCCC2N1c1cccc(OCCN2CCCCC2)c1 (centres unmarked) [Example 10, 1-[3-(2-piperidinoethoxy)-phenyl]-2-oxo-2,4,5,6,7,7a-hexahydro-indole] |  |  | 1 (≈ 2.94 µM) | 130 | 5 (≈ 14.7 µM) |  | 20 (≈ 58.7 µM) | 20 (≈ 58.7 µM) |  | hypotension | tachycardia | vasodilators
CCN(CC)CCOc1cccc(N2C(=O)C=C3CCCCC32)c1 (centres unmarked) [Example 11, 1-[3-(2-Diethylaminoethoxy)-phenyl]-2-oxo-2,4,5,6,7,7a-hexahydro-indole] | 0 |  | 2 (≈ 6.09 µM) | 90 | 10 (≈ 30.4 µM) |  |  | 10 (≈ 30.4 µM) |  | without modifying aortal pressure | without modifying aortal pressure or cardiac frequency | clearly vasodilators
CN(C)CCOc1cccc(N2C(=O)C=C3CCCCC32)c1 (centres unmarked) [Example 12, 1-[3-(2-Dimethylaminoethoxy)-phenyl]-2-oxo-2,4,5,6,7,7a-hexahydro-indole] |  |  | 1 (≈ 3.33 µM) | 27.5 | 10 (≈ 33.3 µM) |  |  | 5 (≈ 16.6 µM) |  | hypotension | tachycardia | vasodilators
CC(C)N(CCOc1cccc(N2C(=O)C=C3CCCCC32)c1)C(C)C (centres unmarked) [Example 13, 1-[3-(2-Diisopropylaminoethoxy)-phenyl]-2-oxo-2,4,5,6,7,7a-hexahydro-indole] |  |  | 1 (≈ 2.8 µM) | 55 | 5 (≈ 14 µM) |  |  | 20 (≈ 56.1 µM) |  | hypertensives |  | 
O=C1C=C2CCCCC2N1c1ccc(OCCN2CCCCC2)c(Cl)c1 (centres unmarked) [Example 14, 1-[3-chloro-4-(2-piperidinoethoxy)-phenyl]-2-oxo-2,4,5,6,7,7a-hexahydro-indole] | 0 |  | 1 (≈ 2.67 µM) | 25 | 10 (≈ 26.7 µM) |  |  | 20 (≈ 53.3 µM) |  | without modifying aortal pressure | without modifying aortal pressure or cardiac frequency | clearly vasodilators
CCN(CC)CCOc1ccc(N2C(=O)C=C3CCCCC32)cc1Cl (centres unmarked) [Example 16, 1-[3-Chloro-4-(2-diethylaminoethoxy)-phenyl]-2-oxo-2,4,5,6,7,7a-hexahydro-indole] | 0 |  | 1 (≈ 2.76 µM) | 22 | 5 (≈ 13.8 µM) |  |  | 1 (≈ 2.76 µM) |  |  |  | 
O=C1C=C2CCCCC2N1c1ccc(OCCN2CCOCC2)c(Cl)c1 (centres unmarked) [Example 17, 1-[3-Chloro-4-(2-morpholinoethoxy)-phenyl]-2-oxo-2,4,5,6,7,7a-hexahydro-indole] | 0 |  | 1 (≈ 2.65 µM) | 120 |  |  | 50 (≈ 133 µM) | 20 (≈ 53.1 µM) | augmented |  |  | 
CC(C)N(CCOc1ccc(N2C(=O)C=C3CCCCC32)cc1Cl)C(C)C (centres unmarked) [Example 18, 1-[3-Chloro-4-(2-diisopropylaminoethoxy)-phenyl]-2-oxo-2,4,5,6,7,7a-hexahydro-indole] |  |  | 1 (≈ 2.56 µM) | 150 | 5 (≈ 12.8 µM) |  |  |  |  | hypertensives |  | 
CN(C)CCOc1ccc(N2C(=O)C(c3ccccc3)=C3CCCCC32)cc1 (centres unmarked) [Example 19, 1-[4-(2-Dimethylaminoethoxy)-phenyl]-2-oxo-3-phenyl-2,4,5,6,7,7a-hexahydro-indole] |  |  | 1 (≈ 2.66 µM) | 10 | 20 (≈ 53.1 µM) | 0 | 5 (≈ 13.3 µM) | 10 (≈ 26.6 µM) | augmented |  |  | 
CCN(CC)CCOc1ccc(N2C(=O)C(c3ccccc3)=C3CCCCC32)cc1 (centres unmarked) [Example 20, 1-[4-(2-diethylaminoethoxy)-phenyl]-2-oxo-3-phenyl-2,4,5,6,7,7a-hexahydro-indole] | 0 |  | 1 (≈ 2.47 µM) | 38 | 2 (≈ 4.94 µM) | 0 | 5 (≈ 12.4 µM) | 5 (≈ 12.4 µM) | augmented |  |  | 
O=C1C(c2ccccc2)=C2CCCCC2N1c1ccc(OCCN2CCOCC2)cc1 (centres unmarked) [Example 21, 1-[4-(2-morpholinoethoxy)-phenyl]-2-oxo-3-phenyl-2,4,5,6,7,7a-hexahydro-indole] | 0 | 0 | 1 (≈ 2.39 µM) | 55 | 20 (≈ 47.8 µM) |  | 2 (≈ 4.78 µM) | 10 (≈ 23.9 µM) | augmented |  |  | 
